In one series the target is T1, 5-HT2A receptor (Homo sapiens, UniProt P28223).
T1 construct: expressed in transfected cells; host or cells: NIH3T3 cells, pSI expression vector
Put plainly: R-SAT functional receptor assay. The series is classed as cell-based. As to conditions: for EC50: agonist.

Another series concerns the target 5HT1B (Homo sapiens, UniProt P28222). Briefly: R-SAT broad profiling. The series is classed as cell-based. Also noted: expressed in transfected cells; host or cells: NIH3T3. As to conditions: read-out: pEC50 or pIC50 (converted). As to the method: (§1) The functional receptor assay, Receptor Selection and Amplification Technology (R-SAT), was used (with minor modifications from that previously described U.S. Pat. No. 5,707,798) to screen compounds for efficacy at the 5-HT2A receptor. Briefly, NIH3T3 cells were grown in 96 well tissue culture plates to 70-80% confluence. Cells were transfected for 12-16 hours with plasmid DNAs using superfect (Qiagen Inc.) as per manufacture's protocols. R-SAT's were generally performed with 50 ng/well of receptor and 20 ng/well of Beta-galactosidase plasmid DNA. All receptor and G-protein constructs used were in the pSI mammalian expression vector (Promega Inc) as described in U.S. Pat. No. 5,707,798. The 5HT2A receptor gene was amplified by nested PCR from brain cDNA using the oligodeoxynucleotides based on the published sequence (see Saltzman et. al. Biochem. Biophys. Res. Comm. 181:1469-78 (1991)). Large-scale transfections, cells were transfected for 12-16 hours, then trypsinized and frozen in DMSO. Frozen cells were later thawed, plated at 10,000-40,000 cells per well of a 96 well plate that contained drug. With both methods, cells were then grown in a humidified atmosphere with 5% ambient CO2 for five days. Media was then removed from the plates and marker gene activity was measured by the addition of the beta-galactosidase substrate ONPG (in PBS with 5% NP-40). The resulting colorimetric reaction was measured in a spectrophotometric plate reader (Titertek Inc.)at […]. All data were analyzed using the computer program XLFit (IDBSm). Efficacy is the percent maximal repression compared to repression by a control compound (ritanserin in the case of 5HT2A). pIC50 is the negative of the log(IC50), where IC50 is the calculated concentration in Molar that produces 50% maximal repression.
(§2) The R-SAT assay (described above in example 289) was used to investigate the selectivity of 4-(4-Fluoro-benzyl)-3-(4-isobutoxy-benzyl)-8-methyl-1-oxa-3,8-diaza-spiro[4.5]decan-2-one.

The next series deals with 5HT1E (Homo sapiens, UniProt P28566). Put plainly: R-SAT broad profiling. Type of series: cell-based. Also noted: expressed in transfected cells; host or cells: NIH3T3. As to conditions: read-out: pEC50 or pIC50 (converted). On the procedure:
as §1, §2

For the next series, the target named is 5HT2B (Homo sapiens, UniProt P41595). Put plainly: R-SAT broad profiling. The series is classed as cell-based. Also noted: expressed in transfected cells; host or cells: NIH3T3. The following applies: read-out: pEC50 or pIC50 (converted). As to the method:
as §1, §2

Another series concerns the target H1 (Homo sapiens, UniProt P35367). Briefly: R-SAT broad profiling. Type of series: cell-based. As to conditions: agonist; read-out: pEC50 or pIC50 (converted). Also noted: expressed in transfected cells; host or cells: NIH3T3. On the procedure:
as §1, §2

The target in the next series is D2 (Homo sapiens, UniProt P14416). Put plainly: R-SAT broad profiling. The series is classed as cell-based. As to conditions: read-out: pEC50/pIC50 (converted). More on the design: expressed in transfected cells; host or cells: NIH3T3. On the procedure:
as §1, with “Frozen cells were later thawed, plated at 10,000-40,000 cells per well of a 96 well plate that contained drug. With both methods, cells were then grown in a humidified atmosphere with 5% ambient CO2 for five days.” left out, “Efficacy is the percent maximal repression compared to repression by a control compound (ritanserin in the case of 5HT2A). pIC50 is the negative of the log(IC50), where IC50 is the calculated concentration in Molar that produces 50% maximal repression.” left out

Another series in a line: Plasma levels (LC/MS/MS). As to conditions: after 13 days; for plasma concentration, Mean: n = 9. Type of series: in vivo, human. As to the method: Plasma Levels: Blood samples were collected into Vacutainer® (dry sodium heparin, green top tube, 6 mL capacity) on Day −1 and again on Day 14 (pre-dose). The time interval between blood collection and freezing of the plasma was no longer than 45 minutes. Within 45 minutes of collection, the plasma fractions were separated by centrifugation at 3,000 rotations per minutes for 10 minutes. The plasma fractions were divided and transferred into two properly labeled storage tubes and frozen at approximately −70° C. Plasma samples were evaluated for N-(1-methylpiperidin-4-yl)-N-(4-fluorophenylmethyl)-N′-(4-(2-methylpropyloxy)phenylmethyl)carbamide using a validated high performance liquid chromatography/tandem mass spectrometric (LC/MS/MS) assay.

Read-outs that look alike come from different tables or passages of the source.

Chain of 5HT2B (P41595 whole entry): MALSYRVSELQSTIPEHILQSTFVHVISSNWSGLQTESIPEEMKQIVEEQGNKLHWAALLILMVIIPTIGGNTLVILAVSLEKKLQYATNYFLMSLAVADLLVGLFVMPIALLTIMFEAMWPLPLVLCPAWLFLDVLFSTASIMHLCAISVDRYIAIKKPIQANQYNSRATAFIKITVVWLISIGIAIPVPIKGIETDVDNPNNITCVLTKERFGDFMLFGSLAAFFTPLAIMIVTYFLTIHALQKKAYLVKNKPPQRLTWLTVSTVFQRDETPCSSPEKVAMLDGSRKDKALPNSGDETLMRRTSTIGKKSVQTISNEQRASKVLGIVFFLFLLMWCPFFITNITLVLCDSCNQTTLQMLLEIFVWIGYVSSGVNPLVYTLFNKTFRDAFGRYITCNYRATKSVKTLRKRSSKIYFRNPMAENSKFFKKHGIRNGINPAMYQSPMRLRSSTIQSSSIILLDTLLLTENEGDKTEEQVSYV
T1 sequence (P28223 whole entry): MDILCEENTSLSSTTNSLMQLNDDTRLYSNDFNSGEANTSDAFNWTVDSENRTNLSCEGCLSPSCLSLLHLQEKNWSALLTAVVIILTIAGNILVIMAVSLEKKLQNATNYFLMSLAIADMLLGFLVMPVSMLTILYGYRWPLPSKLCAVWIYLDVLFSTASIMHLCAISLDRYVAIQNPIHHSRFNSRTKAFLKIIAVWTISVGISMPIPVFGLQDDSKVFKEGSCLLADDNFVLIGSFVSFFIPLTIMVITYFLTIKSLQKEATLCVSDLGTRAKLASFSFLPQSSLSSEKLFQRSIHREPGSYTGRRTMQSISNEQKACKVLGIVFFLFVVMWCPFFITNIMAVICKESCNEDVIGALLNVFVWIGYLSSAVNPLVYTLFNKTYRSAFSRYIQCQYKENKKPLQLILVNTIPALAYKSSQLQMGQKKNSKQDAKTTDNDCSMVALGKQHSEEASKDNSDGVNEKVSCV
Chain of 5HT1E (P28566 whole entry): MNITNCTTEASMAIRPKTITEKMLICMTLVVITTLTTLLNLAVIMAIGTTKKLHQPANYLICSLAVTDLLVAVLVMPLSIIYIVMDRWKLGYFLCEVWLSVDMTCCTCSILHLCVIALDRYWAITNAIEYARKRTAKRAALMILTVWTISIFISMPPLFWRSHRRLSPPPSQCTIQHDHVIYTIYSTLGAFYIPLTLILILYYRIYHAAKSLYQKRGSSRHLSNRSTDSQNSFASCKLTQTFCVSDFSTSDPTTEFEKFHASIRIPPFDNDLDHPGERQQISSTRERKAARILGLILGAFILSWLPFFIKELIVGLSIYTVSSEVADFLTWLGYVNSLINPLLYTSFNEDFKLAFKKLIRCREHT
Chain of 5HT1B (P28222 whole entry, species assumed): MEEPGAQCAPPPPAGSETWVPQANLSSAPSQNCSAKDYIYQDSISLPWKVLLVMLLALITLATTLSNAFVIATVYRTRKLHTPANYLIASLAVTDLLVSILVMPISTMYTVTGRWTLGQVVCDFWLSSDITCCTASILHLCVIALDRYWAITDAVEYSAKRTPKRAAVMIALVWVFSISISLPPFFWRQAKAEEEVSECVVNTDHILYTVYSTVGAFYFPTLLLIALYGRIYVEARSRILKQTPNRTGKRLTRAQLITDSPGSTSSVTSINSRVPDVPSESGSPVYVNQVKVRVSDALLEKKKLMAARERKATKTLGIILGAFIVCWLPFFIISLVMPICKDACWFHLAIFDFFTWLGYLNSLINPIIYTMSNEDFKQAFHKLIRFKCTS
Chain of D2 (P14416 whole entry): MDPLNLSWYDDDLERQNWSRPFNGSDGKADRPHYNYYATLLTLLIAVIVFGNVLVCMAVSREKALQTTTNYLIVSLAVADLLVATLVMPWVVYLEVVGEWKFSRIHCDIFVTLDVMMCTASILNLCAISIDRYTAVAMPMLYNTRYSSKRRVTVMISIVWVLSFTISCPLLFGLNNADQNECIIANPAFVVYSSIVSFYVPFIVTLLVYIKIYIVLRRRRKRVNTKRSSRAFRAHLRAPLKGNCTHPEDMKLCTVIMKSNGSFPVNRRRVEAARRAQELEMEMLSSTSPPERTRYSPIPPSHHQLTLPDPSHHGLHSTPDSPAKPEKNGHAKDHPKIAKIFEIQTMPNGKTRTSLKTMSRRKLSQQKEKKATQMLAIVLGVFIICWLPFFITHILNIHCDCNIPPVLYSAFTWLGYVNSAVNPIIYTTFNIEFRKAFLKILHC
Chain of H1 (P35367 whole entry): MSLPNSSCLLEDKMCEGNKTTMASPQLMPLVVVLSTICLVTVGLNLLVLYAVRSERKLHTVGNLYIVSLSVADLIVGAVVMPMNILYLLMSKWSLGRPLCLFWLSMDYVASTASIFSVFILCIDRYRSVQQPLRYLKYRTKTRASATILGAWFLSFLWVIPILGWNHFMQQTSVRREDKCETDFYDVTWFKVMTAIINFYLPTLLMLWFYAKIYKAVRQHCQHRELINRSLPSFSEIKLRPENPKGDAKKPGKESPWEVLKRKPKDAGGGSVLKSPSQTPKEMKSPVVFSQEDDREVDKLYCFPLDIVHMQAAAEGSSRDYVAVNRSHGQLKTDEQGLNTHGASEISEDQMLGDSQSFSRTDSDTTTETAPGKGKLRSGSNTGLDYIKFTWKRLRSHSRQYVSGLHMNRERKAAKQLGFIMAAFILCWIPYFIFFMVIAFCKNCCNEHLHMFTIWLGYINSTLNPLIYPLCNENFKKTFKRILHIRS

With `CC(C)COc1ccc(CN2C(=O)OC3(CCN(C)CC3)C2Cc2ccc(F)cc2)cc1.Cl` (racemic) [Example 69NLS75, 4-(4-Fluorobenzyl)-3-(4-isobutoxybenzyl)-8-methyl-1-oxa-3,8-diazaspiro[4.5]decan-2-one, hydrochloride], the EC50 on 5-HT2A receptor (read-out: pEC50 or pIC50 (converted)), at 5HT1B (agonist), on 5HT1E (agonist), on 5HT2B (agonist) and at H1 was greater than 3.16 µM in each case. This compound came in with a 5HT2A % inhibition at 5-HT2A receptor (compared to ritanserin) of 94%. Further, the efficacy in brackets on 5-HT2A receptor (inverse) is 94%. Besides, the IC50 at 5HT1B (antagonist) is greater than 3.16 µM; on 5HT1E (antagonist), greater than 0.631 µM; at 5HT2B (antagonist) it was greater than 3.16 µM; at 5HT2B (inverse) it was greater than 2.51 µM.
Turning to `COc1ccc(CC(=O)N(Cc2ccc(C)cc2)C2CCN(C)CC2)cc1` [Example 50ELH27, 2-(4-Methoxyphenyl)-N-(4-methylbenzyl)-N-(1-methylpiperidin-4-yl)acetamide], the Emax on 5-HT2A receptor (120 h, read-out: Percent Efficacy, compared to ritanserin) worked out at 108%. Moreover, the IC50 is 0.002 µM at 5-HT2A receptor (Table 3, read-out: pIC50 (converted)); 0.00158 µM on 5-HT2A receptor (inverse agonist, read-out: pEC50/pIC50 (converted)); greater than 3.16 µM on D2 (antagonist). Also, the EC50 at 5-HT2A receptor (read-out: pEC50/pIC50 (converted)) and on D2 (agonist) was greater than 3.16 µM in each case.
On to `CC(C)COc1ccc(CNC(=O)N(Cc2ccc(F)cc2)C2CCN(C)CC2)cc1` [N-(1-methylpiperidin-4-yl)-N-(4-fluorophenylmethyl)-N′-(4-(2-methylpropyloxy)phenylmethyl)carbamide], for which, in “Plasma levels (LC/MS/MS)” (1 mg once daily), the “plasma concentration, Maximum” value is listed as 2.33 ng/mL; the “plasma concentration, Median” value was determined as 1.750 ng/mL; the “plasma concentration, Minimum” value turned out to be 0.92 ng/mL; the “plasma concentration, Mean” value amounted to 1.628 ng/mL. In the series “Plasma levels (LC/MS/MS)” (2.5 mg once daily), the “plasma concentration, Maximum” value stood at 5.55 ng/mL; the “plasma concentration, Median” value is 3.360 ng/mL; the “plasma concentration, Minimum” value worked out at 2.07 ng/mL; the “plasma concentration, Mean” value came out at 3.647 ng/mL. In “Plasma levels (LC/MS/MS)” (5 mg once daily), the “plasma concentration, Maximum” value stood at 13.00 ng/mL; the “plasma concentration, Median” value is recorded as 8.720 ng/mL; the “plasma concentration, Minimum” value came out at 5.91 ng/mL; the “plasma concentration, Mean” value is listed as 8.516 ng/mL. Also, in the series “Plasma levels (LC/MS/MS)” (20 mg once daily), the “plasma concentration, Maximum” value turned out to be 52.70 ng/mL; the “plasma concentration, Median” value is recorded as 34.100 ng/mL; the “plasma concentration, Minimum” value is reported as 21.90 ng/mL; the “plasma concentration, Mean” value is 35.033 ng/mL.

The values are drawn from US20080051429A1, “USE OF 4-AMINO-PIPERIDINES FOR TREATING SLEEP DISORDERS” (priority 2006, published 2008).
